Reference: BigSolDB 2.1

N#CCc1ccccc1[N+](=O)[O-]
Conditions | solubility (mole fraction)
in 1,4-dioxane, 288.15 K | 0.216
in 1,4-dioxane, 293.15 K | 0.226
in 1,4-dioxane, 298.15 K | 0.241
in 1,4-dioxane, 303.15 K | 0.257
in 1,4-dioxane, 308.15 K | 0.278
in 1,4-dioxane, 313.15 K | 0.303
in 1,4-dioxane, 318.15 K | 0.334
in 1,4-dioxane, 323.15 K | 0.371
in 1,4-dioxane, 328.15 K | 0.414
in 1,4-dioxane, 333.15 K | 0.469
in 2-butanone, 278.15 K | 0.108
in 2-butanone, 283.15 K | 0.128
in 2-butanone, 288.15 K | 0.151
in 2-butanone, 293.15 K | 0.173
in 2-butanone, 298.15 K | 0.197
in 2-butanone, 303.15 K | 0.235
in 2-butanone, 308.15 K | 0.269
in 2-butanone, 313.15 K | 0.312
in 2-butanone, 318.15 K | 0.357
in 2-butanone, 323.15 K | 0.422
in 2-butanone, 328.15 K | 0.475
in 2-butanone, 333.15 K | 0.543
in acetic acid, 293.15 K | 0.0478
in acetic acid, 298.15 K | 0.0574
in acetic acid, 303.15 K | 0.0694
in acetic acid, 308.15 K | 0.0846
in acetic acid, 313.15 K | 0.104
in acetic acid, 318.15 K | 0.128
in acetic acid, 323.15 K | 0.158
in acetic acid, 328.15 K | 0.196
in acetic acid, 333.15 K | 0.244
in acetone, 278.15 K | 0.13
in acetone, 283.15 K | 0.147
in acetone, 288.15 K | 0.171
in acetone, 293.15 K | 0.194
in acetone, 298.15 K | 0.227
in acetone, 303.15 K | 0.259
in acetone, 308.15 K | 0.295
in acetone, 313.15 K | 0.342
in acetone, 318.15 K | 0.385
in acetone, 323.15 K | 0.439
in acetone, 328.15 K | 0.506
in acetonitrile, 278.15 K | 0.0932
in acetonitrile, 283.15 K | 0.107
in acetonitrile, 288.15 K | 0.124
in acetonitrile, 293.15 K | 0.143
in acetonitrile, 298.15 K | 0.168
in acetonitrile, 303.15 K | 0.195
in acetonitrile, 308.15 K | 0.228
in acetonitrile, 313.15 K | 0.264
in acetonitrile, 318.15 K | 0.31
in acetonitrile, 323.15 K | 0.362
in acetonitrile, 328.15 K | 0.424
in acetonitrile, 333.15 K | 0.498
in ethanol, 278.15 K | 0.00458
in ethanol, 283.15 K | 0.00566
in ethanol, 288.15 K | 0.00705
in ethanol, 293.15 K | 0.00939
in ethanol, 298.15 K | 0.0118
in ethanol, 303.15 K | 0.0156
in ethanol, 308.15 K | 0.0213
in ethanol, 313.15 K | 0.0277
in ethanol, 318.15 K | 0.0383
in ethanol, 323.15 K | 0.0487
in ethanol, 328.15 K | 0.0649
in ethanol, 333.15 K | 0.0838
in ethyl acetate, 278.15 K | 0.13
in ethyl acetate, 283.15 K | 0.142
in ethyl acetate, 288.15 K | 0.16
in ethyl acetate, 293.15 K | 0.177
in ethyl acetate, 298.15 K | 0.199
in ethyl acetate, 303.15 K | 0.219
in ethyl acetate, 308.15 K | 0.246
in ethyl acetate, 313.15 K | 0.278
in ethyl acetate, 318.15 K | 0.313
in ethyl acetate, 323.15 K | 0.357
in ethyl acetate, 328.15 K | 0.407
in ethyl acetate, 333.15 K | 0.466
in ethylbenzene, 278.15 K | 0.0237
in ethylbenzene, 283.15 K | 0.0285
in ethylbenzene, 288.15 K | 0.0346
in ethylbenzene, 293.15 K | 0.0423
in ethylbenzene, 298.15 K | 0.052
in ethylbenzene, 303.15 K | 0.0644
in ethylbenzene, 308.15 K | 0.0803
in ethylbenzene, 313.15 K | 0.101
in ethylbenzene, 318.15 K | 0.126
in ethylbenzene, 323.15 K | 0.16
in ethylbenzene, 328.15 K | 0.204
in ethylbenzene, 333.15 K | 0.26
in isobutanol, 278.15 K | 0.00332
in isobutanol, 283.15 K | 0.00416
in isobutanol, 288.15 K | 0.00491
in isobutanol, 293.15 K | 0.00639
in isobutanol, 298.15 K | 0.00803
in isobutanol, 303.15 K | 0.0102
in isobutanol, 308.15 K | 0.013
in isobutanol, 313.15 K | 0.0171
in isobutanol, 318.15 K | 0.0228
in isobutanol, 323.15 K | 0.0303
in isobutanol, 328.15 K | 0.0404
in isobutanol, 333.15 K | 0.0546
in isopropanol, 278.15 K | 0.00411
in isopropanol, 283.15 K | 0.00484
in isopropanol, 288.15 K | 0.00579
in isopropanol, 293.15 K | 0.00751
in isopropanol, 298.15 K | 0.00982
in isopropanol, 303.15 K | 0.0132
in isopropanol, 308.15 K | 0.0177
in isopropanol, 313.15 K | 0.0228
in isopropanol, 318.15 K | 0.03
in isopropanol, 323.15 K | 0.0384
in isopropanol, 328.15 K | 0.0492
in isopropanol, 333.15 K | 0.0627
in methanol, 278.15 K | 0.00641
in methanol, 283.15 K | 0.00842
in methanol, 288.15 K | 0.0105
in methanol, 293.15 K | 0.0131
in methanol, 298.15 K | 0.0174
in methanol, 303.15 K | 0.0235
in methanol, 308.15 K | 0.0305
in methanol, 313.15 K | 0.0395
in methanol, 318.15 K | 0.0514
in methanol, 323.15 K | 0.0661
in methanol, 328.15 K | 0.0842
in methanol, 333.15 K | 0.108
in n-butanol, 278.15 K | 0.00351
in n-butanol, 283.15 K | 0.00437
in n-butanol, 288.15 K | 0.00569
in n-butanol, 293.15 K | 0.00731
in n-butanol, 298.15 K | 0.00969
in n-butanol, 303.15 K | 0.0129
in n-butanol, 308.15 K | 0.0175
in n-butanol, 313.15 K | 0.0223
in n-butanol, 318.15 K | 0.0293
in n-butanol, 323.15 K | 0.0383
in n-butanol, 328.15 K | 0.0491
in n-butanol, 333.15 K | 0.0624
in n-propanol, 278.15 K | 0.00412
in n-propanol, 283.15 K | 0.00553
in n-propanol, 288.15 K | 0.00681
in n-propanol, 293.15 K | 0.00917
in n-propanol, 298.15 K | 0.0115
in n-propanol, 303.15 K | 0.0151
in n-propanol, 308.15 K | 0.0196
in n-propanol, 313.15 K | 0.0254
in n-propanol, 318.15 K | 0.0333
in n-propanol, 323.15 K | 0.0426
in n-propanol, 328.15 K | 0.0544
in n-propanol, 333.15 K | 0.0685
in toluene, 278.15 K | 0.0293
in toluene, 283.15 K | 0.0371
in toluene, 288.15 K | 0.0471
in toluene, 293.15 K | 0.0613
in toluene, 298.15 K | 0.0738
in toluene, 303.15 K | 0.0968
in toluene, 308.15 K | 0.123
in toluene, 313.15 K | 0.153
in toluene, 318.15 K | 0.195
in toluene, 323.15 K | 0.241
in toluene, 328.15 K | 0.303
in toluene, 333.15 K | 0.377
in water, 278.15 K | 3.75e-05
in water, 283.15 K | 4.65e-05
in water, 288.15 K | 5.57e-05
in water, 293.15 K | 6.69e-05
in water, 298.15 K | 8.19e-05
in water, 303.15 K | 0.000102
in water, 308.15 K | 0.000125
in water, 313.15 K | 0.000153
in water, 318.15 K | 0.000186
in water, 323.15 K | 0.000225
in water, 328.15 K | 0.000274
in water, 333.15 K | 0.000333
